Measurements: patent publication US8530489B2 (Vertex Pharmaceuticals Incorporated, priority 2006, dated 2013)

target: PLK1 (Homo sapiens, UniProt P53350); assay: PLK1 Inhibition Assay I (radioactive-phosphate incorporation); assay type: biochemical; conditions: Ki(app); PLK1 Inhibition Assay I or II (table does not say which)
Method: The compounds of the present invention are evaluated as inhibitors of human PLK kinase using the following assays.
Compounds were screened for their ability to inhibit PLK1 using a radioactive-phosphate incorporation assay. Assays were carried out in a mixture of 25 mM HEPES (pH 7.5), 10 mM MgCl2, and 1 mM DTT. Final substrate concentrations were 350 μM [γ-33P]ATP (136 mCi 33P ATP/mmol ATP, Amersham Pharmacia Biotech/Sigma Chemicals) and 450 μM peptide (KKKISDELMDATFADQEAK) [SEQ. ID:1]. Assays were carried out at 25° C. in the presence of 2 nM PLK1. An assay stock buffer solution was prepared containing all of the reagents listed above, with the exception of ATP and the test compound of interest. 30 μL of the stock solution was placed in a 96 well plate followed by addition of 2 μL of DMSO stock containing serial dilutions of the test compound (typically starting from a final concentration of 10 μM with 2-fold serial dilutions) in duplicate (final DMSO concentration 5%). The plate was pre-incubated for 10 minutes at 25° C. and the reaction initiated by addition of 8 μL [γ-33P]ATP (final concentration 350 μM).
The reaction was stopped after 240 minutes by the addition of 100 μL 0.14M phosphoric acid. A multiscreen phosphocellulose filter 96-well plate (Millipore, Cat No. MAPHN0B50) was pretreated with 100 μL 0.1 M phosphoric acid prior to the addition of 125 μL of the stopped assay mixture. The plate was washed with 4×200 μL 0.1 M phosphoric acid. After drying, 100 μL Optiphase ‘SuperMix’ liquid scintillation cocktail (Perkin Elmer) was added to the well prior to scintillation counting (1450 Microbeta Liquid Scintillation Counter, Wallac).
After removing mean background values for all of the data points, Ki(app) data were calculated from non-linear regression analysis of the initial rate data using the Prism software package (GraphPad Prism version 3.0cx for Macintosh, GraphPad Software, San Diego Calif., USA).

Sequence of PLK1 (P53350 whole entry): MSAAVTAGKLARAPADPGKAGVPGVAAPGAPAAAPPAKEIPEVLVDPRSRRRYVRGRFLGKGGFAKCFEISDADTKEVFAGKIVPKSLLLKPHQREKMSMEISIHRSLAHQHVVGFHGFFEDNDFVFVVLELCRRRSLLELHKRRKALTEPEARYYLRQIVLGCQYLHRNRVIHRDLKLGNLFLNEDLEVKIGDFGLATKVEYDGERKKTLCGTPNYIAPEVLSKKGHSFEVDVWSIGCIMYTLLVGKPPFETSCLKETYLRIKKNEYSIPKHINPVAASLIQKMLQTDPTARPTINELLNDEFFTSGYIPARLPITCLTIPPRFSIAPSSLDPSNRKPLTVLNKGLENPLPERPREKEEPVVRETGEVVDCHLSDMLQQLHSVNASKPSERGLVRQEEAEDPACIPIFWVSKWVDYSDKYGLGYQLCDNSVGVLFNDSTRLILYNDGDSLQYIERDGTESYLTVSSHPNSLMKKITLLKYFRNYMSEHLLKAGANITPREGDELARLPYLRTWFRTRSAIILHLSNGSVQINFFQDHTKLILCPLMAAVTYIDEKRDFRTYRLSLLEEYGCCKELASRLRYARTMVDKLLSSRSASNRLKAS

Ki [nM]	Structure (SMILES)
> 40	N#Cc1cnc(NCc2cccc(Cl)c2)nc1-c1c[nH]c2ncc(C(F)(F)F)cc12 [Compound I-13, 2-(3-chlorobenzylamino)-4-(5-(trifluoromethyl)-1H-pyrrolo[2,3-b]pyridin-3-yl)pyrimidine-5-carbonitrile]
3 to 40	N#Cc1cnc(NCc2cccnc2)nc1-c1c[nH]c2ncc(C(F)(F)F)cc12 [Compound I-14, 2-(pyridin-3-ylmethylamino)-4-(5-(trifluoromethyl)-1H-pyrrolo[2,3-b]pyridin-3-yl)pyrimidine-5-carbonitrile]
> 40	COc1ccccc1CNc1ncc(C#N)c(-c2c[nH]c3ncc(C(F)(F)F)cc23)n1 [Compound I-15, 2-(2-methoxybenzylamino)-4-(5-(trifluoromethyl)-1H-pyrrolo[2,3-b]pyridin-3-yl)pyrimidine-5-carbonitrile]
3 to 40	CCC(Nc1ncc(C#N)c(-c2c[nH]c3ncc(C(F)(F)F)cc23)n1)c1ccccc1 (stereo not drawn) [Compound I-16, 2-(1-phenylpropylamino)-4-(5-(trifluoromethyl)-1H-pyrrolo[2,3-b]pyridin-3-yl)pyrimidine-5-carbonitrile]
> 40	N#Cc1cnc(NCc2ccccc2Cl)nc1-c1c[nH]c2ncc(C(F)(F)F)cc12 [Compound I-17, 2-(2-chlorobenzylamino)-4-(5-(trifluoromethyl)-1H-pyrrolo[2,3-b]pyridin-3-yl)pyrimidine-5-carbonitrile]
3 to 40	N#Cc1cnc(NCc2cccc(F)c2)nc1-c1c[nH]c2ncc(C(F)(F)F)cc12 [Compound I-18, 2-(3-fluorobenzylamino)-4-(5-(trifluoromethyl)-1H-pyrrolo[2,3-b]pyridin-3-yl)pyrimidine-5-carbonitrile]
> 40	N#Cc1cnc(NCc2ccc(Cl)cc2)nc1-c1c[nH]c2ncc(C(F)(F)F)cc12 [Compound I-19, 2-(4-chlorobenzylamino)-4-(5-(trifluoromethyl)-1H-pyrrolo[2,3-b]pyridin-3-yl)pyrimidine-5-carbonitrile]
> 40	COc1cccc(CNc2ncc(C#N)c(-c3c[nH]c4ncc(C(F)(F)F)cc34)n2)c1 [Compound I-20, 2-(3-methoxybenzylamino)-4-(5-(trifluoromethyl)-1H-pyrrolo[2,3-b]pyridin-3-yl)pyrimidine-5-carbonitrile]
> 40	N#Cc1cnc(NCc2ccccc2F)nc1-c1c[nH]c2ncc(C(F)(F)F)cc12 [Compound I-21, 2-(2-fluorobenzylamino)-4-(5-(trifluoromethyl)-1H-pyrrolo[2,3-b]pyridin-3-yl)pyrimidine-5-carbonitrile]
> 40	N#Cc1cnc(NCc2ccc(F)cc2)nc1-c1c[nH]c2ncc(C(F)(F)F)cc12 [Compound I-22, 2-(4-fluorobenzylamino)-4-(5-(trifluoromethyl)-1H-pyrrolo[2,3-b]pyridin-3-yl)pyrimidine-5-carbonitrile]
> 40	N#Cc1cnc(NCc2ccncc2)nc1-c1c[nH]c2ncc(C(F)(F)F)cc12 [Compound I-23, 2-(pyridin-4-ylmethylamino)-4-(5-(trifluoromethyl)-1H-pyrrolo[2,3-b]pyridin-3-yl)pyrimidine-5-carbonitrile]
3 to 40	CC(C)C(C)Nc1ncc(C#N)c(-c2c[nH]c3ncc(C(F)(F)F)cc23)n1 (stereo not drawn) [Compound I-24, 2-(3-methylbutan-2-ylamino)-4-(5-(trifluoromethyl)-1H-pyrrolo[2,3-b]pyridin-3-yl)pyrimidine-5-carbonitrile]
3 to 40	N#Cc1cnc(Nc2ccccc2)nc1-c1c[nH]c2ncc(C(F)(F)F)cc12 [Compound I-25, 2-(phenylamino)-4-(5-(trifluoromethyl)-1H-pyrrolo[2,3-b]pyridin-3-yl)pyrimidine-5-carbonitrile]
< 3	COc1ccc([C@@H](C)Nc2ncc(C#N)c(-c3c[nH]c4ncc(C(F)(F)F)cc34)n2)cc1 [Compound I-26, 2-((R)-1-(4-methoxyphenyl)ethylamino)-4-(5-(trifluoromethyl)-1H-pyrrolo[2,3-b]pyridin-3-yl)pyrimidine-5-carbonitrile]
> 40	N#Cc1cnc(NC2CC2c2ccccc2)nc1-c1c[nH]c2ncc(C(F)(F)F)cc12 (stereo not drawn) [Compound I-27, 2-(2-phenylcyclopropylamino)-4-(5-(trifluoromethyl)-1H-pyrrolo[2,3-b]pyridin-3-yl)pyrimidine-5-carbonitrile]
> 40	CC(C)(C)OC(=O)N1CCC(CNc2ncc(C#N)c(-c3c[nH]c4ncc(C(F)(F)F)cc34)n2)CC1 [Compound I-28, tert-butyl 4-((5-cyano-4-(5-(trifluoromethyl)-1H-pyrrolo[2,3-b]pyridin-3-yl)pyrimidin-2-ylamino)methyl)piperidine-1-carboxylate]
3 to 40	N#Cc1cnc(NCC2CCCCC2)nc1-c1c[nH]c2ncc(C(F)(F)F)cc12 [Compound I-29, 2-(cyclohexylmethylamino)-4-(5-(trifluoromethyl)-1H-pyrrolo[2,3-b]pyridin-3-yl)pyrimidine-5-carbonitrile]
> 40	N#Cc1cnc(NCc2nc3ccccc3[nH]2)nc1-c1c[nH]c2ncc(C(F)(F)F)cc12 [Compound I-30, 2-((1H-benzo[d]imidazol-2-yl)methylamino)-4-(5-(trifluoromethyl)-1H-pyrrolo[2,3-b]pyridin-3-yl)pyrimidine-5-carbonitrile]
3 to 40	C[C@@H](Nc1ncc(C#N)c(-c2c[nH]c3ncc(C(F)(F)F)cc23)n1)c1ccc2ccccc2c1 [Compound I-31, 2-((R)-1-(naphthalen-2-yl)ethylamino)-4-(5-(trifluoromethyl)-1H-pyrrolo[2,3-b]pyridin-3-yl)pyrimidine-5-carbonitrile]
> 40	N#Cc1cnc(NCc2ccc(C(F)(F)F)nc2)nc1-c1c[nH]c2ncc(C(F)(F)F)cc12 [Compound I-32, 4-(5-(trifluoromethyl)-1H-pyrrolo[2,3-b]pyridin-3-yl)-2-((6-(trifluoromethyl)pyridin-3-yl)methylamino)pyrimidine-5-carbonitrile]
> 40	C[C@@H](Nc1ncc(C#N)c(-c2c[nH]c3ncc(C(F)(F)F)cc23)n1)c1ccc(Br)cc1 [Compound I-33, 2-((R)-1-(4-bromophenyl)ethylamino)-4-(5-(trifluoromethyl)-1H-pyrrolo[2,3-b]pyridin-3-yl)pyrimidine-5-carbonitrile]
> 40	N#Cc1cnc(NC2CCCc3ccccc32)nc1-c1c[nH]c2ncc(C(F)(F)F)cc12 (stereo not drawn) [Compound I-34, 2-(1,2,3,4-tetrahydronaphthalen-1-ylamino)-4-(5-(trifluoromethyl)-1H-pyrrolo[2,3-b]pyridin-3-yl)pyrimidine-5-carbonitrile]
3 to 40	CCCC(C)Nc1ncc(C#N)c(-c2c[nH]c3ncc(C(F)(F)F)cc23)n1 (stereo not drawn) [Compound I-35, 2-(pentan-2-ylamino)-4-(5-(trifluoromethyl)-1H-pyrrolo[2,3-b]pyridin-3-yl)pyrimidine-5-carbonitrile]
3 to 40	CC(C)CNc1ncc(C#N)c(-c2c[nH]c3ncc(C(F)(F)F)cc23)n1 [Compound I-36, 2-(isobutylamino)-4-(5-(trifluoromethyl)-1H-pyrrolo[2,3-b]pyridin-3-yl)pyrimidine-5-carbonitrile]
> 40	N#Cc1cnc(NCc2ccc(O)c(O)c2)nc1-c1c[nH]c2ncc(C(F)(F)F)cc12 [Compound I-37, 2-(3,4-dihydroxybenzylamino)-4-(5-(trifluoromethyl)-1H-pyrrolo[2,3-b]pyridin-3-yl)pyrimidine-5-carbonitrile]
> 40	N#Cc1cnc(NC2CCc3ccccc32)nc1-c1c[nH]c2ncc(C(F)(F)F)cc12 (stereo not drawn) [Compound I-38, 2-(2,3-dihydro-1H-inden-1-ylamino)-4-(5-(trifluoromethyl)-1H-pyrrolo[2,3-b]pyridin-3-yl)pyrimidine-5-carbonitrile]
3 to 40	CCC(CO)Nc1ncc(C#N)c(-c2c[nH]c3ncc(C(F)(F)F)cc23)n1 (stereo not drawn) [Compound I-39, 2-(1-hydroxybutan-2-ylamino)-4-(5-(trifluoromethyl)-1H-pyrrolo[2,3-b]pyridin-3-yl)pyrimidine-5-carbonitrile]
> 40	CC(=O)NCCNc1ncc(C#N)c(-c2c[nH]c3ncc(C(F)(F)F)cc23)n1 [Compound I-40, N-(2-(5-cyano-4-(5-(trifluoromethyl)-1H-pyrrolo[2,3-b]pyridin-3-yl)pyrimidin-2-ylamino)ethyl)acetamide]
> 40	CC(C)Oc1ccc(CNc2ncc(C#N)c(-c3c[nH]c4ncc(C(F)(F)F)cc34)n2)cc1 [Compound I-41, 2-(4-isopropoxybenzylamino)-4-(5-(trifluoromethyl)-1H-pyrrolo[2,3-b]pyridin-3-yl)pyrimidine-5-carbonitrile]
> 40	COc1cc(CNc2ncc(C#N)c(-c3c[nH]c4ncc(C(F)(F)F)cc34)n2)ccc1O [Compound I-42, 2-(4-hydroxy-3-methoxybenzylamino)-4-(5-(trifluoromethyl)-1H-pyrrolo[2,3-b]pyridin-3-yl)pyrimidine-5-carbonitrile]
